In patent publication US20020137929A1, “1 - (3-heterocyclylphenyl) isothiourea, -isourea, -guanidine and -amidine herbicidal agents” (Intellectual Property Department, BASF Aktiengesellschaft, priority 1998, published 2002):

Legend:
[1] = tested on: GLXMAW (Soybean, Williams); test: Preemergence herbicidal evaluation; format: in vivo, Glycine max, (L.) Merr. cv Williams; conditions: rated 4-5 weeks after treatment
Excerpt: (§1) Results of herbicide evaluation are expressed on a rating scale (0-9). The scale is based upon a visual observation of plant stand, vigor, malformation, size, chlorosis and overall plant appearance as compared with a control.
(§2) The preemergence herbicidal activity of the test compounds of the present invention is exemplified by the following tests in which the seeds of a variety of monocotyledonous and dicotyledonous plants are separately mixed with potting soil and planted on top of approximately one inch of soil in separate pint cups. After planting, the cups are sprayed with the selected aqueous acetone solution containing test compound in sufficient quantity to provide the equivalent of about 0.0156 to 0.500 kg per hectare of test compound per cup. The treated cups are then placed on greenhouse benches, watered and cared for in accordance with conventional greenhouse procedures. From four to five weeks after treatment, the tests are terminated and each cup is examined and rated according to the rating system provided in Example 37.
(§3) The compounds evaluated are reported by compound number given in Example 37.

ORYSAT (Rice, Tebonnet) = test: Preemergence herbicidal evaluation; format: in vivo, Oryza sativa, (L.) Tebonnet; conditions: rated 4-5 weeks after treatment
How it was run: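 Each species is sown separately in potting soil over roughly an inch of soil before any emergence. The soil surface then receives an aqueous acetone spray delivering about 0.0156 to 0.500 kg/ha of compound. After four to five weeks, injury is scored from 0 to 9 relative to a control.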

CASOB (Sicklepod) = test: Postemergence herbicidal evaluation; format: in vivo, Cassia obtusifolia; conditions: postemergence
How it was run: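 Herbicidal effect was judged by eye on a 0–9 scale covering stand, vigor, deformity, size and chlorosis, compared with controls, four to five weeks after seedlings about two weeks old were sprayed (40 psi, ~0.0156–0.500 kg/ha).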

[2] = tested on: TRZAWR (Wheat, Winter, cv Riband); test: Preemergence herbicidal evaluation; format: in vivo, Triticum aestivum; conditions: rated 4-5 weeks after treatment
Excerpt: as §1, §2, §3

[3] = tested on: SAGPY (Arrowhead (Pygmaea)); test: Preemergence weed control under flooded paddy conditions; format: in vivo, Sagittaria pygmaea; conditions: rated 3-4 weeks after treatment
How it was run: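 Greenhouse paddy assay. Acetone/water (50/50 v/v) solutions dosed into flood water, equivalent to about 0.0313 to 0.500 kg/ha active ingredient, over seeds planted 0.5 cm deep in silt loam. Score: 0-9 visual, based on stand, vigor, malformation, size and chlorosis, 3 to 4 weeks after treatment.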

## CCOC(=O)CN1C(=O)C(CC(=O)O)SC1=Nc1cc(N2C(=O)CC(C(F)(F)F)CC2=O)c(F)cc1Cl (centres unmarked) [Compound 170, 2-{{2-Chloro-5-[2,6-dioxo-4-(trifluoromethyl)-piperidino]-4-fluorophenyl}imino}-4-oxo-3,5-thiazolidinediacetic acid, 3-ethyl ester]
[1]; 0.0156 kg/ha
  Preemergence herbicidal rating GLXMAW: 1.0
[1]; 0.0313 kg/ha
  Preemergence herbicidal rating GLXMAW: 4.0
[1]; 0.0625 kg/ha
  Preemergence herbicidal rating GLXMAW: 4.0
[1]; 0.1250 kg/ha
  Preemergence herbicidal rating GLXMAW: 5.0
[1]; 0.2500 kg/ha
  Preemergence herbicidal rating GLXMAW: 8.0
ORYSAT (Rice, Tebonnet); 0.0156 kg/ha
  Preemergence herbicidal rating ORYSAT: 0.0
ORYSAT (Rice, Tebonnet); 0.0313 kg/ha
  Preemergence herbicidal rating ORYSAT: 0.0
ORYSAT (Rice, Tebonnet); 0.0625 kg/ha
  Preemergence herbicidal rating ORYSAT: 6.0
ORYSAT (Rice, Tebonnet); 0.1250 kg/ha
  Preemergence herbicidal rating ORYSAT: 7.0
ORYSAT (Rice, Tebonnet); 0.2500 kg/ha
  Preemergence herbicidal rating ORYSAT: 9.0
CASOB (Sicklepod); rate 0.0156 kg/ha
  Herbicidal rating CASOB: 0.0
CASOB (Sicklepod); rate 0.0313 kg/ha
  Herbicidal rating CASOB: 0.0
CASOB (Sicklepod); rate 0.0625 kg/ha
  Herbicidal rating CASOB: 1.0
[2]; 0.0156 kg/ha
  Preemergence herbicidal rating TRZAWR: 0.0
[2]; 0.0313 kg/ha
  Preemergence herbicidal rating TRZAWR: 6.0
[2]; 0.0625 kg/ha
  Preemergence herbicidal rating TRZAWR: 7.0
[2]; 0.1250 kg/ha
  Preemergence herbicidal rating TRZAWR: 8.0
[2]; 0.2500 kg/ha
  Preemergence herbicidal rating TRZAWR: 9.0
[3]; 0.0313 kg/ha
  herbicidal effect rating, SAGPY: 5.0
[3]; 0.0625 kg/ha
  herbicidal effect rating, SAGPY: 9.0
[3]; 0.1250 kg/ha
  herbicidal effect rating, SAGPY: 8.0
[3]; 0.2500 kg/ha
  herbicidal effect rating, SAGPY: 9.0

## COC(=O)COC(=O)CN1C(=O)CSC1=Nc1cc(-n2c(=O)cc(C(F)(F)F)n(C)c2=O)c(F)cc1Cl [Compound 108, 2-{{2-Chloro-5-[3,6-dihydro-3-methyl-2,6-dioxo-4-(trifluoromethyl)-1(2H)-pyrimidinyl]-4-fluorophenyl}imino}-4-oxo-3-thiazolidineacetic acid, ester with methyl glycolate]
[1]; rate 0.0156 kg/ha
  Preemergence herbicidal rating GLXMAW: 0.0
[1]; rate 0.0625 kg/ha
  Preemergence herbicidal rating GLXMAW: 2.0
[1]; rate 0.1250 kg/ha
  Preemergence herbicidal rating GLXMAW: 2.0
[1]; rate 0.2500 kg/ha
  Preemergence herbicidal rating GLXMAW: 2.0
ORYSAT (Rice, Tebonnet); rate 0.0156 kg/ha
  Preemergence herbicidal rating ORYSAT: 0.0
ORYSAT (Rice, Tebonnet); rate 0.0313 kg/ha
  Preemergence herbicidal rating ORYSAT: 0.0
ORYSAT (Rice, Tebonnet); rate 0.0625 kg/ha
  Preemergence herbicidal rating ORYSAT: 0.0
ORYSAT (Rice, Tebonnet); rate 0.1250 kg/ha
  Preemergence herbicidal rating ORYSAT: 1.0
ORYSAT (Rice, Tebonnet); rate 0.2500 kg/ha
  Preemergence herbicidal rating ORYSAT: 5.0
CASOB (Sicklepod); rate 0.0158 kg/ha
  Herbicidal rating CASOB: 1.0
CASOB (Sicklepod); rate 0.0315 kg/ha
  Herbicidal rating CASOB: 1.0
CASOB (Sicklepod); rate 0.0630 kg/ha
  Herbicidal rating CASOB: 1.0
[2]; rate 0.0156 kg/ha
  Preemergence herbicidal rating TRZAWR: 0.0
[2]; rate 0.0313 kg/ha
  Preemergence herbicidal rating TRZAWR: 0.0
[2]; rate 0.0625 kg/ha
  Preemergence herbicidal rating TRZAWR: 0.0
[2]; rate 0.1250 kg/ha
  Preemergence herbicidal rating TRZAWR: 2.0
[2]; rate 0.2500 kg/ha
  Preemergence herbicidal rating TRZAWR: 5.0
[3]; 0.0313 kg/ha
  SAGPY herbicidal effect rating: 0.0
[3]; 0.0625 kg/ha
  SAGPY herbicidal effect rating: 0.0
[3]; 0.1250 kg/ha
  SAGPY herbicidal effect rating: 3.0
[3]; 0.2500 kg/ha
  SAGPY herbicidal effect rating: 6.0

## COC(=O)[C@@H](Cc1ccccc1)N1C(=O)CSC1=Nc1cc(-n2c(=O)cc(C(F)(F)F)n(C)c2=O)c(F)cc1Cl [Compound 74, Methyl α-benzyl-2-{{2-chloro-5-[3,6-dihydro-3-methyl-2,6-dioxo-4-(trifluoromethyl)-1(2H)-pyrimidinyl]-4-fluorophenyl}imino}-4-oxo-3-thiazolidineacetate, D-]
[1]; rate 0.0156 kg/ha
  Preemergence herbicidal rating GLXMAW: 0.0
[1]; rate 0.0313 kg/ha
  Preemergence herbicidal rating GLXMAW: 1.0
[1]; rate 0.0625 kg/ha
  Preemergence herbicidal rating GLXMAW: 0.0
[1]; rate 0.1250 kg/ha
  Preemergence herbicidal rating GLXMAW: 1.0
[1]; rate 0.2500 kg/ha
  Preemergence herbicidal rating GLXMAW: 1.0
ORYSAT (Rice, Tebonnet); rate 0.0156 kg/ha
  Preemergence herbicidal rating ORYSAT: 0.0
ORYSAT (Rice, Tebonnet); rate 0.0313 kg/ha
  Preemergence herbicidal rating ORYSAT: 0.0
ORYSAT (Rice, Tebonnet); rate 0.0625 kg/ha
  Preemergence herbicidal rating ORYSAT: 1.0
ORYSAT (Rice, Tebonnet); rate 0.1250 kg/ha
  Preemergence herbicidal rating ORYSAT: 1.0
ORYSAT (Rice, Tebonnet); rate 0.2500 kg/ha
  Preemergence herbicidal rating ORYSAT: 1.0
CASOB (Sicklepod); rate 0.0158 kg/ha
  CASOB herbicidal rating: 3.0
CASOB (Sicklepod); rate 0.0315 kg/ha
  CASOB herbicidal rating: 4.0
CASOB (Sicklepod); rate 0.0630 kg/ha
  CASOB herbicidal rating: 9.0
[2]; rate 0.0156 kg/ha
  Preemergence herbicidal rating TRZAWR: 0.0
[2]; rate 0.0313 kg/ha
  Preemergence herbicidal rating TRZAWR: 0.0
[2]; rate 0.0625 kg/ha
  Preemergence herbicidal rating TRZAWR: 1.0
[2]; rate 0.1250 kg/ha
  Preemergence herbicidal rating TRZAWR: 1.0
[2]; rate 0.2500 kg/ha
  Preemergence herbicidal rating TRZAWR: 1.0
[3]; 0.0313 kg/ha
  SAGPY herbicidal effect rating: 3.0
[3]; 0.0625 kg/ha
  SAGPY herbicidal effect rating: 3.0
[3]; 0.1250 kg/ha
  SAGPY herbicidal effect rating: 3.0
[3]; 0.2500 kg/ha
  SAGPY herbicidal effect rating: 9.0
